Experimental data reported in patent US20240148749A1 (priority 2021, published 2024).
Entries after “also recorded” stand apart in the source; their conditions may differ.

Experiments:
control and CLP mice [1] = test: Novel Object Location test (NOL); format: in vivo, mouse; conditions: F(1,29)=0.0007, p=0.98; day 20
Procedure: (§1) Data shown are mean values (±SD). Gray bars represent MnTBAP-treated mice from either CLP or control groups, and black bars represent placebo-treated mice from either CLP or Control groups. Two-way analyses of variance (ANOVAs) (CLP vs Control×MnTBAP vs Placebo) were performed. When a significant interaction was observed, planned comparisons were performed for the CLP/Placebo group against the three other groups. The significance of the planned comparisons is indicated with asterisks (*p<0.05, **p<0.01, ***p<0.001, ****p<0.0001).
(§2) MnTBAP is commercially available: it is for example manufactured by Sigma-Aldrich, Calbiochem, etc. For use it is dissolved following the guidance provided by the manufacturer.
(§3) Twice a week after the CLP, survival mice were gently handled for at least four 5-min sessions to habituate to the experimenter. Then, 20 and 21 days after CLP, mice were submitted to the novel object location (NOL) and novel object recognition (NOR) tests. […]
(§4) The familiarization sessions consisted on 10 min of free exploration of two identical objects, placed inside the same open field arena that the mice had visited on the previous day. […] Then, the percentage of exploration of the new object was calculated, reflecting the retention of the familiar object memory at long-term (24 h). […]

control and CLP mice [2] = test: Novel Object Recognition test (NOR); format: in vivo, mouse; conditions: septic (CLP) mice, systemic MnTBAP treatment
Procedure: as §1, §2, §3, §4

CLP mice = test: Survival after cecal ligation and puncture (CLP) model of sepsis; format: in vivo, mouse; conditions: CLP-MnTBAP mice, 24 h after CLP; MnTBAP 10 mg/kg IP every 12 h for 48 h
Procedure: A log-rank (Mantel-Cox) p value for trend was calculated.
We used peritonitis induced by CLP as a model of sepsis (Rittirsch et al., 2009). Briefly, animals were anesthetized with ketamine (Imalgene® 1000 100 mg/kg, Merial, France) and Xylazine (Rompun® 2% 20 mg/kg, Bayer, Germany) prior to surgery. After laparotomy, caecum was ligatured at the distal third with a 4.0 suture and the distal part was perforated twice with a 21 Gauge needle.
For use it is dissolved following the guidance provided by the manufacturer.
Clinical score was assessed 6, 12 and 24 hours and 21 days after CLP using a modified SmithKline Beecham, Harwell, Imperial College and Royal London Hospital phenotype assessment (SHIRPA) (Rogers et al., 1997) of the maximum score of fourteen. Weight, temperature and locomotor activity using an open field box were measured at the same time points. We determined survival rate twice a day for 21 days after CLP. The symptoms included in the a modified SmithKline Beecham, Harwell, Imperial College and Royal London Hospital phenotype assessment (SHIRPA) are tremors, periorbital exudates, piloerection, lethargy, vocalisation, positional passivity, no escapement to threat, long transfer arousal and diarrhoea. Each condition was scored from 0 to 2.
Experimental protocols were conducted in accordance with the French and European regulations on Animal Welfare and with Public Health Service recommendations. The experiments were performed on C57BL/6JRj mice (male and female) purchased from Janvier Laboratory. Mice were housed in cages in groups of 7, in a temperature (22±1.5° C.) and humidity-controlled environment, with a 12 h light/dark cycle. All animals used in the study were between 10 and 12 weeks old. Sample-size estimates for animal experiments were based on prior animal-modelling studies used in the Unit for the investigation of caecal ligation and puncture (CLP).
At the end, two groups were compared: CLP-Placebo, CLP-BMX-010. We determined survival rate twice a day for 4 days after CLP.”

[3] = Liu et al., 2013b; cited from earlier work

SMILES: O=C(O)c1ccc(/C2=C3\C=CC(=N3)/C(c3ccc(C(=O)O)cc3)=c3/cc/c4[n]3[Mn]([Cl])[n]3c2ccc3/C(c2ccc(C(=O)O)cc2)=C2/C=CC(=N2)\C=4c2ccc(C(=O)O)cc2)cc1 [MnTBAP, Manganese (III) tetrakis (4-benzoic acid)porphyrin chloride]
- NOL exploration time, CLP vs control×MnTBAP vs placebo interaction (control and CLP mice [1]): no significant CLP vs control×MnTBAP vs placebo interaction
- cognition / long-term cognitive function (control and CLP mice [2]): restored cognition; also recorded: successfully restores long-term cognitive function
- mice alive (CLP mice): 66%
- BBB penetration [3]: poorly penetrates the BBB
